# Measured values from paper PMC6344527, “Toxicity and possible mechanisms of action of honokiol from Magnolia denudata seeds against four mosquito species” (Scientific Reports, 2019).
# Columns and labels:
# [1] = test system: midgut regions of third-instar Ae. aegypti larvae; assay: histologic analysis by Carson's trichrome staining; format: in vivo, Aedes aegypti; settings: honokiol 6.5 mg/L or magnolol 25 mg/L (LC50), 24 h
# Procedure: At 24 h post-treatment, Ae. aegypti larvae untreated and treated with honokiol or magnolol were immediately fixed in Bouin’s fluid[75] at 4 °C for 24 h. Larvae were then dehydrated in an ethanol-tetrahydrofuran-xylene series and embedded in Paraplast X-tra (Sigma-Aldrich). The embedded preparations of the larvae were sectioned at a 5 μm thickness using a Microm HM 340E rotary microtome (Thermo Scientific, Walldorf, Germany). The sections were dried at 40 °C overnight, subsequently deparaffinized with CitriSolv (Fisher Scientific, Fair Lawn, NJ, USA), and rehydrated with a series of ethanol in phosphate-buffered saline (PBS) solutions[30]. The rehydrated sections were stained in Weigert’s iron hematoxylin for 30 s, followed by Carson’s trichrome staining procedure. This staining protocol stained the columnar and goblet cells of the midgut blue and red, respectively. These sections were then dehydrated, cleared in xylene, and mounted in EMS Permount (Electron Microscopy Sciences, Hatfield, PA, USA). Images were observed and captured using a DMIL LED microscope (Leica Microsystems, Wetzlar, Germany) equipped with a Leica MC 170 HD. Observations were taken of 15 larvae under the microscope.
# [2] = target: acetylcholinesterase (AChE) from third-instar Ae. aegypti larvae (Aedes aegypti, UniProt A4GND7); assay: acetylcholinesterase inhibition assay; format: biochemical; settings: based on IC50 values
# Procedure: The in vitro AChE inhibitory activity of the test compounds was assessed according to the method of Perumalsamy et al.[42]. Third-instar Ae. aegypti larvae were used in all experiments. Whole bodies of 50 larvae were homogenized in 1 mL of ice-cold 0.1 M phosphate buffer (pH 8.0) using a glass tissue homogenizer. After filtering through cheesecloth, the homogenate was centrifuged at 1,000 × g at 4 °C for 5 min. The supernatant was used directly as the enzyme source for AChE. The protein levels were determined using the Bradford Protein Assay Kit (Bio-Rad Laboratories, Hercules, CA, USA) using BSA as the standard. The reaction mixture consisted of 50 µL of the crude enzyme preparation (4.3–4.8 µg protein equivalents), 150 µL of 0.1 M phosphate buffer, 20 µL of 3 mM DTNB in phosphate buffer (pH 7.0), and 1 µL of various concentrations of each test compound in ethanol. The reaction mixture was incubated at 30 °C for 5 min, and 20 µL of 32 mM ATChI was then added to the mixture. After incubation for 30 min, the reaction was terminated by adding 20 µL of 5 mM eserine salicylate. Absorbance was recorded at 412 nm using a VersaMax microplate reader (Molecular Devices, Sunnyvale, CA, USA). […] The results are expressed as the means ± standard errors (SEs) of triplicate samples from three independent experiments.
# The concentration of the test compounds required to produce 50% AChE inhibitory activity (IC50) was determined using the SAS 9.13 program (Cary: SAS Institute; 2014). Concentration-mortality data were subjected to probit analysis using the SAS 9.13 program. […] Statistical analyses were performed using the SAS 9.13 program. Multiple linear regression and correlation analysis were performed using the SPSS 24 program (Armonk: IBM Corp.; 2016).
# [3] = test system: third-instar Ae. aegypti larvae; assay: light microscopy analysis of treated larvae; format: in vivo, Aedes aegypti; settings: honokiol 6.5 mg/L or magnolol 25 mg/L (LC50), 24 h
# Procedure: At 24 h post-treatment, the untreated and treated larvae were placed on a microscope slide at room temperature for light microscopy. Morphological observations were made with an EZ4 HD stereo microscope (35×) equipped with an Integrated 3.0 Mega-Pixel CMOS camera (Leica Microsystems, Heerbrugg, Switzerland). All experiments were performed in duplicate, with 20 mosquito larvae used in each replicate. More than 10 live larvae from the control and treated groups were randomly collected and used for analysis.
# AeCS1 mRNA = assay: real-time qRT-PCR of target gene expression; format: in vivo, Aedes aegypti; settings: compared to control larvae; midgut; honokiol 6.5 mg/L or magnolol 25 mg/L, 24 h
# Procedure: (§1) Real-time qRT-PCR with SYBR Green dye was performed to determine whether honokiol and magnolol treatment affected the expression levels of three target genes, AaAQP4, AaV-type H^+-ATPase and AeCS1, in Ae. aegypti. […] Total RNA was extracted from the anal gills (for AaAQP4 and AaV-type H^+-ATPase) and midgut (for AeCS1) of 50 larvae using an RNeasy Mini Kit (Qiagen, Valencia, CA, USA) according to the manufacturer’s instructions. Residual genomic DNA was removed using RQ1 RNase-Free DNase (Promega, Fitchburg, WI, USA), and 1 μg of total RNA from each sample was used for complementary DNA (cDNA) synthesis with an oligo(dT) primer (Invitrogen, Grand Island, NY, USA) according to the protocol of the SuperScript III Reverse Transcriptase Kit. Real-time qRT-PCR was performed in 96-well plates using the StepOne Plus Real-Time PCR System (Applied Biosystems, Foster, CA, USA). Each reaction mixture consisted of 10 μL of the SYBR Green PCR Master Mix Kit (Applied Biosystems, Warrington, Cheshire, UK), 2 μL of the forward and reverse primers (10 pmol each), 1 μL of cDNA (25 ng) and diethylpyrocarbonate-treated water for a final volume of 20 μL. The oligonucleotide PCR primer pairs are listed in Table 9 and were purchased from Cosmo Genetech (Seoul). The cycling program included an initial hold at 95 °C for 5 min, followed by 35 cycles at 95 °C for 30 s, at 58 °C for 30 s, at 72 °C for 1 min, and an extension at 72 °C for 5 min using an Applied Bioscience Thermal Cycler. The mRNA expression levels of the target genes were normalized to the mRNA expression level of the housekeeping gene Aarps7 and analyzed by the 2^−ΔΔCT method using the Applied Biosystems StepOne Software v2.1 and DataAssist Software. The results are expressed as the means ± SEs of duplicate samples from three independent experiments.
# AaV-type H^+-ATPase mRNA = assay: real-time qRT-PCR of target gene expression; format: in vivo, Aedes aegypti; settings: fold higher than the control group; anal gills; honokiol 6.5 mg/L or magnolol 25 mg/L, 24 h
# Procedure: as §1
# AaAQP4 mRNA = assay: real-time qRT-PCR of target gene expression; format: in vivo, Aedes aegypti; settings: fold higher than the control group; anal gills; honokiol 6.5 mg/L or magnolol 25 mg/L, 24 h
# Procedure: as §1
# Sequence of acetylcholinesterase (AChE) from third-instar Ae. aegypti larvae (A4GND7 37-679): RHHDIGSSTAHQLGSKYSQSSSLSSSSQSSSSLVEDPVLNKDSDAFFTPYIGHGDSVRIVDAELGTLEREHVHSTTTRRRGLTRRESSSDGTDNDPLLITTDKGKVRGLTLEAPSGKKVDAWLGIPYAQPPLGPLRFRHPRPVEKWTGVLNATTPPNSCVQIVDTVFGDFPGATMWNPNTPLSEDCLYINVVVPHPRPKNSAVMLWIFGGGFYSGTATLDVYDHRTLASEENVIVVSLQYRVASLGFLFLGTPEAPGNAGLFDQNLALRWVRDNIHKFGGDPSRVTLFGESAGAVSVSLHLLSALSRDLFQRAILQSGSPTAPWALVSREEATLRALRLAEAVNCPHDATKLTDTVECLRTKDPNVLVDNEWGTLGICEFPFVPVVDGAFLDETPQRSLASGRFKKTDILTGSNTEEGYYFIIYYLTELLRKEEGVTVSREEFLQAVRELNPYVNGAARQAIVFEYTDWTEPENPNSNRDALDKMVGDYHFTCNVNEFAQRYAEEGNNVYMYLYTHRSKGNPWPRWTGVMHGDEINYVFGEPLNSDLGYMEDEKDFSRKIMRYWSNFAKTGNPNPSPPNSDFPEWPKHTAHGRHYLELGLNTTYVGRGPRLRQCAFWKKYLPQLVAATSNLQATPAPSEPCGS
SMILES,histology of midgut region (Carson's staining) [1],AChE inhibitory activity (in words) [2],anal gill region (light microscopy) [3],morphology of the whole body (light microscopy) [3],AeCS1 mRNA levels (AeCS1 mRNA),AaV-type H^+-ATPase mRNA expression levels (AaV-type H^+-ATPase mRNA),AaAQP4 mRNA expression levels (AaAQP4 mRNA)
"C=CCc1ccc(O)c(-c2cc(CC=C)ccc2O)c1 [Magnolol, magnolol]",indistinct midgut epithelial layers and PMs,strongly,completely damaged outer cuticle membranes with undistinguishable anal gills with no internal body fluid,shrunken body with no distinct abdominal segments,up to 503%,~14 fold,did not affect
"C=CCc1ccc(O)c(-c2ccc(O)c(CC=C)c2)c1 [Honokiol, 2-(4-hydroxy-3-prop-2-enyl-phenyl)-4-prop-2-enyl-phenol]",indistinct damaged midgut epithelial layers,moderately,"the anal gill from one side was swollen and reduced from its normal length, and the other one was completely damaged","severely damaged, with an indistinct appearance of the thorax, midgut, and abdominal regions",82%,approximately 16 fold,approximately 18 fold
